As a reminder, the MIC is the smallest concentration in the dilution series that meets the test's criterion for growth inhibition. For orientation: IC50 means the concentration needed to halve the response being measured. A low value points to higher potency.

Results on 37 compounds are retold here after ChEMBL document CHEMBL1145728, “Structure--activity relationships of the peptide deformylase inhibitor BB-3497: modification of the P2' and P3' side chains” (Bioorg Med Chem Lett, 2003).

The test system of one assay is Escherichia coli. Put plainly: Antibacterial activity against Escherichia coli. The assay is classed as functional.
A further assay concerns Staphylococcus capitis. Put plainly: Antibacterial activity against Staphylococcus capitis. Format: functional.
A further assay concerns the target T1, Peptide deformylase (Escherichia coli, UniProt Q9JN24).
T1 sequence (Q9JN24 whole entry): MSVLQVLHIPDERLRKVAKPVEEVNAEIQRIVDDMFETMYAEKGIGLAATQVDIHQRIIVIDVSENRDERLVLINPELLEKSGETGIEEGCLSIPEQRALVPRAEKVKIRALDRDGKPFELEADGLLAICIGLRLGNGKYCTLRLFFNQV
Put plainly: Inhibition concentration against Escherichia coli peptide deformylase.

The mark [1] stands for this setting: Escherichia coli, read-out: MIC.
Setting [2] is: Staphylococcus capitis, read-out: MIC.

Converted amounts (≈) assume the structure as drawn.

Turning to `CCCC[C@H](CN(O)C=O)C(=O)N1Cc2ccccc2C[C@H]1C(=O)N(C)C`, the minimum inhibitory concentration (MIC) in the assay with Escherichia coli (setting [1]) and with Staphylococcus capitis (setting [2]) was over 200 µM each time.

For `CCCC[C@H](CN(O)C=O)C(=O)N[C@@H](CO)C(=O)N(C)C`, the MIC in the assay with Escherichia coli (setting [1]) stood at 100 µM (≈ 30.3 µg/mL); with Staphylococcus capitis (setting [2]), 50 µM (≈ 15.2 µg/mL).

Take `CCCC[C@H](CN(O)C=O)C(=O)N[C@H](C(=O)O)C(C)(C)C`: the minimal inhibitory concentration (MIC) in the assay with Escherichia coli (setting [1]) and in the assay with Staphylococcus capitis (setting [2]) was over 200 µM in each case. For the same compound, at Peptide deformylase, inhibition was half-maximal at 80 nM (IC50).

On to `CCCC[C@H](CN(O)C=O)C(=O)N[C@@H](Cc1ccc(O)cc1)C(=O)N(C)C`, for which the MIC in the assay on Escherichia coli (setting [1]) and in the assay with Staphylococcus capitis (setting [2]) was over 200 µM in each case. The compound further displayed an IC50 at Peptide deformylase of 300 nM.

Regarding `CCCC[C@H](CN(O)C=O)C(=O)N[C@@H](C)C(=O)N(C)C`, the figures for the minimum inhibitory concentration (MIC) in the assay on Escherichia coli (setting [1]) and in the assay on Staphylococcus capitis (setting [2]) were 25 µM (≈ 7.18 µg/mL) and 100 µM (≈ 28.7 µg/mL), respectively. The compound further gave an IC50 against Peptide deformylase of 40 nM.

As to `CCCC[C@H](CN(O)C=O)C(=O)N[C@@H](CSCc1ccccc1)C(=O)N(C)C`, the MIC in the assay with Escherichia coli (setting [1]) was 200 µM (≈ 81.9 µg/mL); with Staphylococcus capitis (setting [2]), 12.5 µM (≈ 5.12 µg/mL). In addition, the IC50 against Peptide deformylase was 70 nM.

Consider `CCCC[C@H](CN(O)C=O)C(=O)N[C@H](C(=O)N1CCC(Cc2ccccc2)CC1)C(C)(C)C`, for which the MIC amounted to 200 µM (≈ 91.9 µg/mL) with Escherichia coli (setting [1]) and 6.25 µM (≈ 2.87 µg/mL) with Staphylococcus capitis (setting [2]). On Peptide deformylase, this compound gave a concentration for half-maximal inhibition (IC50) of 20 nM.

In the case of `CCCC[C@H](CN(O)C=O)C(=O)NCC(=O)N(C)C`, the MIC in the assay with Escherichia coli (setting [1]) was 50 µM (≈ 13.7 µg/mL); in the assay on Staphylococcus capitis (setting [2]), over 200 µM.

`CCCC[C@H](CN(O)C=O)C(=O)N[C@H](C(=O)N1CCC(C(=O)OCC)CC1)C(C)(C)C`: the MIC was over 200 µM in the assay on Escherichia coli (setting [1]) and 25 µM (≈ 11 µg/mL) in the assay on Staphylococcus capitis (setting [2]). On Peptide deformylase, this compound came in with an IC50 of 10 nM.

As to `CCCC[C@H](CN(O)C=O)C(=O)N[C@H](C(=O)N(C)C)C(C)(C)SC`, the MIC in the assay on Escherichia coli (setting [1]) and with Staphylococcus capitis (setting [2]) was 25 µM (≈ 9.04 µg/mL) each time.

As to `CCCC[C@H](CN(O)C=O)C(=O)N[C@H](C(=O)N1CCCc2ccccc21)C(C)(C)C`, the MIC with Escherichia coli (setting [1]) and in the assay on Staphylococcus capitis (setting [2]) was 50 µM (≈ 20.9 µg/mL) each time. This compound also displayed an IC50 on Peptide deformylase of 9 nM.

In the case of `CCCC[C@H](CN(O)C=O)C(=O)N[C@H](C(=O)N1CCCC1)C(C)(C)C`, the MIC in the assay with Escherichia coli (setting [1]) and with Staphylococcus capitis (setting [2]) was 25 µM (≈ 8.89 µg/mL) each time.

Turning to `CCCC[C@H](CN(O)C=O)C(=O)N1CCC[C@H]1C(=O)N(C)C`, the MIC is over 200 µM in the assay on Escherichia coli (setting [1]) and 50 µM (≈ 15.7 µg/mL) in the assay with Staphylococcus capitis (setting [2]). On Peptide deformylase, 400 nM corresponded to half-maximal inhibition (IC50).

Take `CCCC[C@H](CN(O)C=O)C(=O)N[C@@H](CC(C)C)C(=O)N(C)C`: the MIC in the assay with Escherichia coli (setting [1]) and with Staphylococcus capitis (setting [2]) was 50 µM (≈ 16.5 µg/mL) throughout. For the same compound, the IC50 against Peptide deformylase came out at 20 nM.

As for `CCCC[C@H](CN(O)C=O)C(=O)N[C@@H](CCCCN)C(=O)N(C)C`, the MIC with Escherichia coli (setting [1]) and in the assay with Staphylococcus capitis (setting [2]) was over 200 µM in each case. This compound returned an IC50 at Peptide deformylase of 200 nM.

`CCCC[C@H](CN(O)C=O)C(=O)N[C@@H](CCC(=O)OCc1ccccc1)C(=O)N(C)C`: the MIC was over 200 µM with Escherichia coli (setting [1]) and 200 µM (≈ 87.1 µg/mL) in the assay with Staphylococcus capitis (setting [2]). Also, on Peptide deformylase, the IC50 amounted to 20 nM.

In the case of `CCCC[C@H](CN(O)C=O)C(=O)N[C@H](C(C)=O)C(C)(C)C`, the MIC with Escherichia coli (setting [1]) came out at 25 µM (≈ 7.51 µg/mL); in the assay on Staphylococcus capitis (setting [2]), 100 µM (≈ 30 µg/mL). Half-maximal inhibition at Peptide deformylase (IC50) was put at 20 nM.

For the compound `CCCC[C@H](CN(O)C=O)C(=O)N[C@@H](CC1CCCCC1)C(=O)N(C)C`, the MIC in the assay with Escherichia coli (setting [1]) and in the assay with Staphylococcus capitis (setting [2]) was 100 µM (≈ 37 µg/mL) in each case. For the same compound, the midpoint of inhibition on Peptide deformylase, the IC50, lay at 30 nM.

With `CCCC[C@H](CN(O)C=O)C(=O)N[C@H](C(=O)N(C)C)C(C)C`, the MIC in the assay with Escherichia coli (setting [1]) and in the assay on Staphylococcus capitis (setting [2]) was 25 µM (≈ 7.89 µg/mL) in each case. Also, on Peptide deformylase, the IC50 was 20 nM.

Take `CCCC[C@H](CN(O)C=O)C(=O)N[C@H](C(=O)N1CCCC2CCCCC21)C(C)(C)C` (some centres undefined): the MIC in the assay with Escherichia coli (setting [1]) is over 200 µM; with Staphylococcus capitis (setting [2]) it was 50 µM (≈ 21.2 µg/mL).

In the case of `CCCC[C@H](CN(O)C=O)C(=O)N[C@H](C(=O)N(C)C)C(C)(C)O`, the MIC with Escherichia coli (setting [1]) came to 12.5 µM (≈ 4.14 µg/mL); with Staphylococcus capitis (setting [2]), 25 µM (≈ 8.29 µg/mL).

In the case of `CCCC[C@H](CN(O)C=O)C(=O)N[C@H](C(=O)OC)C(C)(C)C`, the MIC in the assay on Escherichia coli (setting [1]) was determined as 50 µM (≈ 15.8 µg/mL); in the assay on Staphylococcus capitis (setting [2]) it was 200 µM (≈ 63.3 µg/mL). This compound also showed an IC50 against Peptide deformylase of 30 nM.

Turning to `CCCC[C@H](CN(O)C=O)C(=O)N[C@H](C(=O)N1CCN(C)CC1)C(C)(C)C`, the MIC in the assay on Escherichia coli (setting [1]) was 25 µM (≈ 9.61 µg/mL); in the assay with Staphylococcus capitis (setting [2]), 50 µM (≈ 19.2 µg/mL). At Peptide deformylase, this compound displayed an IC50 of 50 nM.

`CCCC[C@H](CN(O)C=O)C(=O)N[C@H](C(=O)N(C)C)C(C)CC` (some centres undefined): the figures for the MIC in the assay with Escherichia coli (setting [1]) and in the assay with Staphylococcus capitis (setting [2]) were 25 µM (≈ 8.24 µg/mL) and 12.5 µM (≈ 4.12 µg/mL), respectively. Moreover, the midpoint of inhibition at Peptide deformylase, the IC50, lay at 20 nM.

Turning to `CCCC[C@H](CN(O)C=O)C(=O)N[C@H](C(=O)N1CCC(C)CC1)C(C)(C)C`, the MIC with Escherichia coli (setting [1]) came out at 100 µM (≈ 38.4 µg/mL); with Staphylococcus capitis (setting [2]), 50 µM (≈ 19.2 µg/mL). This compound returned an IC50 on Peptide deformylase of 10 nM.

As for `CCCC[C@H](CN(O)C=O)C(=O)N[C@H](C(=O)N1CCOCC1)C(C)(C)C`, the MIC in the assay with Escherichia coli (setting [1]) and in the assay on Staphylococcus capitis (setting [2]) was 25 µM (≈ 9.29 µg/mL) throughout. In addition, at Peptide deformylase, the 50% inhibitory concentration (IC50) came out at 20 nM.

As for `CCCC[C@H](CN(O)C=O)C(=O)N[C@@H](CCCCN(C)C)C(=O)N(C)C`, the MIC in the assay on Escherichia coli (setting [1]) and with Staphylococcus capitis (setting [2]) was over 200 µM each time. The same compound returned an IC50 against Peptide deformylase of 300 nM.

On to `CCCC[C@H](CN(O)C=O)C(=O)N[C@@H](CCCNC(=N)N)C(=O)N(C)C`, for which the MIC was over 200 µM in the assay with Escherichia coli (setting [1]) and 50 µM (≈ 18.6 µg/mL) with Staphylococcus capitis (setting [2]). The compound further registered an IC50 against Peptide deformylase of 20 nM.

For `CCCC[C@H](CN(O)C=O)C(=O)N[C@@H](Cc1ccccc1)C(=O)N(C)C`, the figures for the MIC with Escherichia coli (setting [1]) and in the assay with Staphylococcus capitis (setting [2]) were 100 µM (≈ 36.3 µg/mL) and 50 µM (≈ 18.2 µg/mL), respectively.

`CCCC[C@H](CN(O)C=O)C(=O)N[C@H](C(=O)N(C)C)C(C)(C)OC`: the minimal inhibitory concentration (MIC) with Escherichia coli (setting [1]) came to 25 µM (≈ 8.64 µg/mL); in the assay with Staphylococcus capitis (setting [2]), 100 µM (≈ 34.5 µg/mL).

Consider `CCCC[C@H](CN(O)C=O)C(=O)N[C@H](C(=O)N(CCc1ccccc1)Cc1ccccc1)C(C)(C)C`, for which the MIC was over 200 µM in the assay with Escherichia coli (setting [1]) and 100 µM (≈ 49.6 µg/mL) in the assay on Staphylococcus capitis (setting [2]). Besides, inhibition against Peptide deformylase was half-maximal at 90 nM (IC50).

For `CCCC[C@H](CN(O)C=O)C(=O)N[C@H](C(=O)N(C)C1CCCCC1)C(C)(C)C`, the MIC was over 200 µM in the assay with Escherichia coli (setting [1]) and 100 µM (≈ 39.8 µg/mL) in the assay with Staphylococcus capitis (setting [2]).

For the compound `CCCC[C@H](CN(O)C=O)C(=O)N[C@H](C(=O)N1CCC(C(C)=O)CC1)C(C)(C)C`, the values for the MIC in the assay with Escherichia coli (setting [1]) and in the assay with Staphylococcus capitis (setting [2]) were 100 µM (≈ 41.2 µg/mL) and 25 µM (≈ 10.3 µg/mL), respectively. This compound also showed an IC50 on Peptide deformylase of 10 nM.

With `CCCC[C@H](CN(O)C=O)C(=O)N[C@@H](Cc1ccc(Cl)cc1)C(=O)N(C)C`, the MIC in the assay with Escherichia coli (setting [1]) was over 200 µM; in the assay on Staphylococcus capitis (setting [2]) it was 100 µM (≈ 39.8 µg/mL). The same compound gave an IC50 on Peptide deformylase of 50 nM.

Turning to `CCCC[C@H](CN(O)C=O)C(=O)N[C@@H](CC(=O)OCc1ccccc1)C(=O)N(C)C`, the results for the MIC in the assay with Escherichia coli (setting [1]) and in the assay with Staphylococcus capitis (setting [2]) were over 200 µM and 25 µM (≈ 10.5 µg/mL), respectively. The same compound yielded an IC50 at Peptide deformylase of 100 nM.

`CCCC[C@H](CN(O)C=O)C(=O)N[C@H](C(=O)N(C)C)C(C)(C)C` (stereo in doubt; form 1) returned an IC50 on Peptide deformylase of 7 nM.

As to `CCCC[C@H](CN(O)C=O)C(=O)N[C@H](C(=O)N(C)C)C(C)(C)C` (stereo in doubt; form 2), the MIC was 100 µM (≈ 32.9 µg/mL) in the assay on Escherichia coli and over 200 µM in the assay with Staphylococcus capitis. The same compound yielded an IC50 against Peptide deformylase of 40 nM.
